Data set [1] deals with rabbit models of suppressed hematopoietic function by CP administration. The experiment in a line: Recovery of neutrophil counts in rabbit models of suppressed hematopoietic function by cyclophosphamide (Example 29). Particulars: CP rabbits; 20 mg/kg-body weight/day, days 3 to 7; Example 4 in fat emulsion, Comparative Example 1 in HPCD solution. The format is in vivo. An excerpt: Regarding the effect of promoting the recovery of neutrophil counts in rabbit models of suppressed hematopoietic function by cyclophosphamide (hereinafter referred to as CP) administration, the pharmaceutical composition comprising the fat emulsion containing the glutathione derivative of Example 4 of the present invention and the pharmaceutical composition of the conventional technology of Comparative Example 1 were compared.
(1) Animals used and the keeping condition: Male Japanese white rabbits, 17-week old, (Kbl:JW) purchased from Kitayama Labes Co., Ltd. were used. The animal feed (LRC4, manufactured by Oriental Yeast Co., Ltd.) and drinking water (well water treated with 0.4±0.2 ppm hypochlorous acid) were given ad libitum during the period of the experiment. The animals were each housed in a hanging-type rat cage (manufactured by Nippon Cage K.K.) and kept at a temperature of 24±2° C. and a humidity of 55±5%.
(2) Creation of rabbit models of suppressed hematopoietic function by CP administration; CP (manufactured by Wako Pure Chemicals Industries, Ltd.) was intravenously administered at 60 mg/kg-body weight/day (dosage volume was 2 ml/kg-body weight) to rabbits described in (1) on day 1 and 2 of the experiment. […] Blood was also drawn before the administration on day 1 of the experiment, and the value determined for the blood was used as the pre-administration value. […]

Data set [2] concerns rat models of suppressed hematopoietic function by 5-FU administration. The experiment in a line: Recovery of neutrophil counts in rat models of suppressed hematopoietic function by 5-FU (Example 26). It counts as in vivo. Conditions: 5-FU rats, days 2-10. An excerpt:
Regarding the effect of promoting the recovery of neutrophil counts in rat models of suppressed hematopoietic function by 5-fuluorouracil administration, statistical significance was compared to the control group to compare the pharmaceutical composition containing Example 4 of the present invention as an active ingredient with the pharmaceutical composition of the conventional technology of Comparative Example 1 and granulocyte colony-stimulating factor (G-CSF).
(1) Animals used and the keeping condition: Male SD rats, 6-week old, purchased from Nippon SLC were used. The animal feed (manufactured by Oriental Yeast Co., Ltd.) and drinking water (well water treated with 0.4±0.2 ppm hypochlorous acid) were given ad libitum during the period of the experiment. The animals were housed in a hanging-type rat cage (manufactured by Nippon Cage K.K.) and kept at a temperature of 24±2° C. and a humidity of 55±5%.
(2) Creation of rat models of suppressed hematopoietic function by 5-FU administration; Creation of rat models of suppressed hematopoietic function by 5-FU (Kyowa Hakko Kogyo Co. Ltd.) administration was carried out based on the method of Akamatsu et al. (Yakuri to Chiryo(Pharmacology and Therapy), 18. (Suppl. 9), 317-356 (1990)). Thus, on the first day of the experiment, 5-FU at 50 mg/kg-body weight (dosage volume is 1 ml/kg-body weight) or the same amount of physiological saline (manufactured by Fuso Pharmaceuticals Industries, Ltd.) was intraperitoneally administered to the rats described in (1). On days 4, and 7-12, blood was drawn from the jugular vein and the EDTA-2K-treated blood was obtained. The blood was used to determine the neutrophil count using a general chemistry test instrument (Technicon H-1E, manufactured by Bayer-Sankyo K.K.) and the ratio of reticulocytes using a reticulocyte determination instrument (EPICS, XL-MCL, manufactured by Coulter K.K.). Blood was also drawn on day 1 of the experiment, and the values determined for the blood were used as the pre-administration values.
In the physiological saline administration group, no changes in neutrophil count were observed throughout the experiment period, whereas in the 5-FU administration group there was a reduction in neutrophil count with the lowest value observed on day 8 of the experiment, and the neutrophil count was recovered to the value before 5-FU administration or higher on day 10 of the experiment or after. The above results confirmed that rat models of suppressed hematopoietic function can be created by a single intraperitoneal administration of 5-FU at 50 mg/kg-body weight.
(3) Evaluation of Example 4 and Comparative Example 1 in the above model; To the model described in (2), the glutathione derivative of Example 4 combined with the fat emulsion at 10 to 30 mg/kg-body weight/day or the glutathione derivative of Comparative Example 1 dissolved in a physiological saline containing 2.5% hydroxypropyl-β-cyclodextrin at 50 mg/kg-body weight/day was repeatedly administered into the tail vein for 9 days from day 2 to 10 of the experiment. The recombinant human G-CSF formulation (hereinafter referred to as G-CSF, manufactured by Chugai Pharmaceutical Co., Ltd.) as the positive control at 10 μg/kg-body weight/day and the empty fat emulsion as the negative control were administered in a similar manner. […]

For data set [3], the system named is TNFα. Kind of data set: Plasma level of TNFα in normal healthy rats (ELISA). The format is in vivo, rat. Particulars: fat emulsion 20 mg/kg-body weight/day, days 3, 5 and 7. An excerpt: , plasma obtained form the EDTA-2K-treated blood on days 3, 5, and 7 of the experiment was used to determine plasma levels of interleukin 1β (hereinafter referred to as IL-1β) and tumor necrosis factor (hereinafter referred to as TNFα). For the determination, the rat IL-1β-ELISA system (manufactured by Amersham Pharmacia Biotek Co., Ltd.), the rat TNFα-ELISA system (manufactured by Amersham Pharmacia Biotek Co., Ltd.), and the BioRad microplate reader (MODEL550, Nippon BioRad laboratories, Co., Ltd.).

Turning to `CCCCCCCCCCCCCCCCOC(=O)[C@@H](N)CCC(=O)N[C@@H](CSCc1ccccc1)C(=O)N[C@@H](C(=O)OCC)c1ccccc1.Cl` [Example 4, Glu(Cys(Bzl)-D-Phg-OEt)-O(Hexadecyl)hydrochloride], in data set [1], the “Neutrophil counts compared to the negative control group” value is “statistically significant increase in neutrophil counts”. For the same molecule, the “Neutrophil counts relative to the negative control group” value in data set [2] (fat emulsion 10 mg/kg-body weight/day iv) is given as “No changes were observed”; in data set [2] (fat emulsion 20 mg/kg-body weight/day iv, days 9 to 11, significance 1% to 0.1%) it was “statistically significant increase”; in data set [2] (fat emulsion 30 mg/kg-body weight/day iv, from day 8, significance 5%-0.1%), “statistically significant increase”. The “Plasma level of TNFα relative to the negative control group” value in data set [3] is “No increases”.
As to `CCOC(=O)[C@@H](N)CCC(=O)N[C@@H](CSCc1ccccc1)C(=O)N[C@@H](C(=O)OCC)c1ccccc1.Cl` [Comparative Example 1, Glu(Cys(Bzl)-D-Phg-O(Et))-O(Et)hydrochloride, reference compound], the “Neutrophil counts compared to the negative control group” value in data set [1] was “no changes were observed”. Moreover, the “Neutrophil counts relative to the negative control group” value in data set [2] (HPCD solution 50 mg/kg-body weight/day iv, significant (5%) on day 12 only) is reported as “no changes were observed compared to the negative control group”.

Values taken from patent publication US6627732B1, “Glutathione derivatives and their dosage forms” (Teijin Limited, priority 1998, dated 2003).
